Measured values as given in patent publication US8008259B2, “Neurotrophin-derived peptide sequences” (Copenhagen University, Techtrans Unit, priority 2005, dated 2011).

Legend:
[1] = test system: cerebellar granule neurons (CGN); assay: Neurite outgrowth of primary cerebellar granule neurons in culture; assay type: cell-based, rat; details: CGN from 7 day old rats, peptide 3-81 μg/ml, 24 hours
Description: Dissociated cerebellar neurons were isolated from 7 day old rats. Cerebellum was isolated from the brain in ice cold modified Krebs Ringer solution, cleared of blood vessels, roughly homogenised by chopping and then trypsinised. The dissociated cells were washed in the presence of DNAse 1 and soybean trypsin inhibitor. Postnatal hippocampal neurons or cerebellar granule neurons (CGN) were plated at a density of 10,000 cells/cm^2 on uncoated 8-well permanox Lab-Tek chamber slides in Neurobasal medium supplemented with 0.4% (w/v) bovine serum albumin (BSA; Sigma-Aldrich), 2% (v/v) B27 Neurobasal supplement, 1% (v/v) glutamax, 100 U/ml penicillin, 100 μg/ml streptomycin and 2% 1 M HEPES (all from Gibco, BRL). After 24 hours, the neurons were fixed with 4% (v/v) formaldehyde for 20 minutes and thereafter immunostained using primary rabbit antibodies against GAP-43 and Alexa Fluor secondary goat anti-rabbit Ig antibodies. Images of at least 200 neurons for each group in each individual experiment were obtained systematically by computer assisted fluorescence microscopy as previously described (Rønn et al., 2000). Briefly, a Nikon Diaphot inverted microscope with a Nikon Plan 20× objective (Nikon, Tokyo, Japan) coupled to a video camera (Grundig Electronics, Germany) was used for recordings. A software package Prima developed at the Protein Laboratory (Copenhagen, Denmark) was used to make a stereologically based determination of neurite length (Rønn et al., 2000).
CGN prepared as described above were treated with different concentrations (3-81 μg/ml) of peptides NGF-C2, NGF-D, NGF-E, NGF-C1, NGF-EE, BDNF-E or BDNF-EE.

TrkC = TrkC (Homo sapiens, UniProt Q16288); assay: Surface Plasmon Resonance binding to immobilized TrkC; details: SPR, 25° C., HBS-EP buffer pH 7.4, receptor immobilized on CM4 chip
Description: The TrkA, TrkB and TrkC receptors and p75^NTR were immobilized on a sensor chip, CM4, using an amine-coupling kit as follows: the chip was activated by 20 μl activation solution, N-hydroxysuccinimide, (NHS) and N-ethyl-N′-(3-[…])-carbodiimide (EDC), the protein was immobilized using 30 μl of a mixture of 4 μl (0.5 μg/ml) protein in 50 μl 10 mM sodium acetate buffer (pH 4.0); and the chip was blocked by 35 μl blocking solution (ethanolamine-HCl). The receptor surface was regenerated between ligand injections with 15 μl 2 mM NaCl or 10 mM glycine-HCl, pH 2.5. In the present experiments a flow rate of 5 μl/min was used.
The curve corresponding to the difference between binding to the Trk receptors or the […] receptor and a blank chip was used for analysis.

focal brain injury = assay: Traumatic brain injury model (focal cryo-lesion of right fronto-parietal cortex), immunohistochemistry; assay type: in vivo, rat; details: lesioned rats, 10 mg/kg/injection subcutaneously on day (−1), 1 and 3
Description: (§1) A focal brain injury on the right fronto-parietal cortex was made by applying a piece of dry-ice (−78° C.) directly onto the skull for 30 seconds in mice and 60 seconds in rats, as previously described in details (Penkowa et al., 2003).
Histochemistry and immunohistochemistry were performed on sections cut from organs taken from fixated animals. Rats and mice were deeply anesthetized with Brietal and flushed by cardiac perfusion with saline containing heparine (0.9% NaCl, 3 ml/L 5000 IU heparine) for 2 minutes followed by fixation with Zamboni's fixative (pH 7.4) for 4-8 minutes depending on the size of the animal. For immunohistochemical investigation, brain were dissected and postfixed in Zamboni's for 2-3 hours, dehydraded in graded alcohol followed by xylol and subsequently embedded in paraffin before being cut in 3 μm frontal sections throughout the entire area of the cryo lesion. […]
Following treatment as described above, sections were incubated overnight at 5° C. with one of the following primary antibodies: polyclonal rabbit anti-cow glial fibrillary acidic protein (GFAP) 1:250 (a marker for astrocytes; DakoCytomation); monoclonal mouse anti-8-hydroxydeoxyguanosine (8-OH-dG) diluted 1:100 in goat serum (a marker for DNA oxidation; Chemicon, Temacula, Calif., USA). The primary antibody was detected with biotynilated secondary antibodies, incubated with streptavidin-biotin-peroxidase complex for 30 min. […]
as §1, with “In vivo experiments—A” for “A”, “2003). […] The primary antibody was detected with biotynilated secondary antibodies, incubated with streptavidin-biotin-peroxidase complex for 30 min. […]” for “2003).”

TrkC, sequence (Q16288 32-839, species assumed): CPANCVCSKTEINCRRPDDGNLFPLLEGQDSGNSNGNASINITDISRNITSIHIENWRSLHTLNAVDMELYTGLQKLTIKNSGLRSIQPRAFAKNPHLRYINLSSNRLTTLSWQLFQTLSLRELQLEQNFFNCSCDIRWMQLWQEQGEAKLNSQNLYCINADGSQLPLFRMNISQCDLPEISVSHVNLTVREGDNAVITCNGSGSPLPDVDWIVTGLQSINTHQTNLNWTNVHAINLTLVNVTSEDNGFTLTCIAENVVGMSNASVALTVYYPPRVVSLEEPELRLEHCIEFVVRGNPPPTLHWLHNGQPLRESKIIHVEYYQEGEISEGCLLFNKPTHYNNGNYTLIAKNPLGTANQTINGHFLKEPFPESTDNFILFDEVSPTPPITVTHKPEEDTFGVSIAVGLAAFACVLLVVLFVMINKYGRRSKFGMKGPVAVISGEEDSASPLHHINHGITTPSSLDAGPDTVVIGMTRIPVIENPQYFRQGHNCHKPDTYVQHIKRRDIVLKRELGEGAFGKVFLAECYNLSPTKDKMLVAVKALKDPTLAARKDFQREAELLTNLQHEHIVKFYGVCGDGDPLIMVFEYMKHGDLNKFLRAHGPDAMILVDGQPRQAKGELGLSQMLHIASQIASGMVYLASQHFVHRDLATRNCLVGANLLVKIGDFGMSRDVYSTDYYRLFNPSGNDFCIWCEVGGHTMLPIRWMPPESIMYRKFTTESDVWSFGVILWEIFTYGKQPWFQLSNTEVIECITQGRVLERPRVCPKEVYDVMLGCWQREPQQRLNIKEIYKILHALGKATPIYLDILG

Row | Substance | neurite outgrowth from primary neurons in culture [1] | further results
1 | H-RGIDSKHWNSY-OH [NGF-E] | significantly stimulate neurite outgrowth | –
2 | H-RGIDKRHWNSQ-OH [BDNF-E] | significantly stimulate neurite outgrowth | –
3 | NGF-D: NGF-derived peptide, amino acids 2-14 of SEQ ID NO: 1 (YETKCRDPNPVDSG); lacks the hydrophobic residue of motif I (listed as Homo sapiens) | does not have neuritogenic activity | –
4 | BDNF: Brain-derived neurotrophic factor, member of the neurotrophin family, reference ligand in SPR | – | Kd (TrkC): 14 nM
5 | H-CVLSRKAVRRA-OH [NGF-C2] | significantly stimulate neurite outgrowth | –
6 | RIDTACV (listed as Homo sapiens) [NGF-C1, NGF-derived peptide, motif I] | significantly stimulate neurite outgrowth | –
7 | H-SYVRALTMDSKKRIGWR-OH [BDNF-EE] | significantly stimulate neurite outgrowth | cortical astrocytes as reflected by immunostaining for GFAP (focal brain injury): activation of cortical astrocytes; microglia activation as reflected by binding of tomato lectin (focal brain injury): inhibition of microglia activation; oxidative stress as reflected by immunostaining for 8-hydroxydeoxyguanosine (focal brain injury): inhibition of oxidative stress
8 | H-TFVKALTMDGKQAAWR-OH [NGF-EE] | significantly stimulate neurite outgrowth | –
